ChEMBL document CHEMBL1138958, “Opioid receptor binding and antinociceptive activity of the analogues of endomorphin-2 and morphiceptin with phenylalanine mimics in the position 3 or 4” (Bioorg Med Chem Lett, 2006)
pKi: −log10 of the molar value. Where a SMILES comes first, the peptide text is derived from it. [ ]: non-standard residue; d: D form. hPhe = N[C@@H](CCc1ccccc1)C(=O)O

Key:
Mu-type opioid receptor = Mu-type opioid receptor (Rattus norvegicus, UniProt P33535); assay: Displacement of [3H]DAMGO from mu opioid receptor in Wistar rat brain
Sequence of Mu-type opioid receptor (P33535 whole entry): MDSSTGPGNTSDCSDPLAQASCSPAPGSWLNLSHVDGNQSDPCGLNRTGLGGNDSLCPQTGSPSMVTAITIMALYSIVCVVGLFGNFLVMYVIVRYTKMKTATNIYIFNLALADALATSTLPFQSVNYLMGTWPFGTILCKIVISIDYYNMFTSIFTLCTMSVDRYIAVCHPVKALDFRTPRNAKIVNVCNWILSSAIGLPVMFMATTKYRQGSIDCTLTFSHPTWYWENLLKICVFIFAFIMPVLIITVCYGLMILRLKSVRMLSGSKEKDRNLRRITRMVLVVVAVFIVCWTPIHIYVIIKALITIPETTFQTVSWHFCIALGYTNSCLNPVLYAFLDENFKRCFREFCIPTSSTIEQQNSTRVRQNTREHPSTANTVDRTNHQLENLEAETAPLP

[1] = molecular target: Delta-type opioid receptor (Rattus norvegicus, UniProt P33533); assay: Displacement of [3H]DPDPE from delta opioid receptor in Wistar rat brain
Sequence of Delta-type opioid receptor (P33533 whole entry): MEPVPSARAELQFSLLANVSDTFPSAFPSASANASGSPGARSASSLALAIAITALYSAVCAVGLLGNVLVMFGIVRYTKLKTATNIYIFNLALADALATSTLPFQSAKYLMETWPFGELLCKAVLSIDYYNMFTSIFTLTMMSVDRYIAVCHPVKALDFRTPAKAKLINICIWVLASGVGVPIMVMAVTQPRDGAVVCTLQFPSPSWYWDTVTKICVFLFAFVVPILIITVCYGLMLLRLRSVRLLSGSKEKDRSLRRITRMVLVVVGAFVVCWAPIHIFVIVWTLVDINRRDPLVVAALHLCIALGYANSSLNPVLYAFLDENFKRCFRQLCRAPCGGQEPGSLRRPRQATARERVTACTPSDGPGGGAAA

[2] = molecular target: Mu-type opioid receptor (Rattus norvegicus) (UniProt P33535); assay: Decrease of maximum binding of [3H]DAMGO to mu opioid receptor in Wistar rat brain at 10000 nm; set-up: scale not given: the % may be the effect or the level left
Sequence of Mu-type opioid receptor (Rattus norvegicus) (P33535 whole entry): as the sequence (P33535 whole entry) above

Mus musculus [3] = assay: Antinociceptive activity in mouse at 4 ul, icv by hot plate test assessed as area under %MPE - time curve after 15 mins; type: functional
Mus musculus [4] = assay: Antinociceptive activity in mouse at 4ul, icv by hot plate test assessed as area under %MPE - time curve after 30 mins; type: functional
Mus musculus [5] = assay: Antinociceptive activity in mouse at 4ul, icv by hot plate test assessed as area under %MPE - time curve after 45 mins; type: functional
[6] = Half life in mouse brain at 10 ul; type: ADME, organism-based

Structure (SMILES) | pKi (Mu-type opioid receptor) | pKi [1] | Activity [2] [%] | Activity (Mus musculus [3]) [%] | Activity (Mus musculus [4]) [%] | Activity (Mus musculus [5]) [%] | half-life [6] [min]
NC(=O)[C@H](NC(=O)[C@H](Cc1ccccc1)NC(=O)[C@@H]1CCCN1C(=O)[C@@H](N)Cc1ccc(O)cc1)c1ccccc1 | 6.67 | < 5.00 | – | – | – | – | –
NC(=O)[C@@H]1CCCN1C(=O)[C@H](NC(=O)[C@@H]1CCCN1C(=O)[C@@H](N)Cc1ccc(O)cc1)c1ccccc1 | – | < 5.00 | 24.5 | – | – | – | –
NC(=O)[C@H](Cc1ccccc1)NC(=O)[C@H](NC(=O)[C@@H]1CCCN1C(=O)[C@@H](N)Cc1ccc(O)cc1)c1ccccc1 | 5.87 | 5.68 | – | – | – | – | –
NC(=O)[C@@H]1CCCN1C(=O)[C@H](CCc1ccccc1)NC(=O)[C@@H]1CCCN1C(=O)[C@@H](N)Cc1ccc(O)cc1 (H-YP[hPhe]P-NH2) | 6.23 | < 5.00 | – | – | – | – | –
NC(=O)[C@H](Cc1ccccc1)NC(=O)[C@H](CCc1ccccc1)NC(=O)[C@@H]1CCCN1C(=O)[C@@H](N)Cc1ccc(O)cc1 | 7.55 | < 5.00 | – | 67.5 | 50 | 38.2 | 32.5
NC(=O)[C@H](Cc1ccccc1)NC(=O)[C@H](Cc1ccccc1)NC(=O)[C@@H]1CCCN1C(=O)[C@@H](N)Cc1ccc(O)cc1 [ENDOMORPHIN 2] | – | – | – | 40.1 | 34.8 | – | 19.7
NC(=O)[C@@H](NC(=O)[C@H](Cc1ccccc1)NC(=O)[C@@H]1CCCN1C(=O)[C@@H](N)Cc1ccc(O)cc1)c1ccccc1 | 7.57 | < 5.00 | – | 54.2 | 42.2 | 35.5 | 24.1
NC(=O)[C@@H]1CCCN1C(=O)[C@@H](NC(=O)[C@@H]1CCCN1C(=O)[C@@H](N)Cc1ccc(O)cc1)c1ccccc1 | – | < 5.00 | – | – | – | – | –
NC(=O)[C@H](Cc1ccccc1)NC(=O)[C@@H](NC(=O)[C@@H]1CCCN1C(=O)[C@@H](N)Cc1ccc(O)cc1)c1ccccc1 | 6.57 | < 5.00 | – | – | – | – | –
NC(=O)[C@@H]1CCCN1C(=O)[C@H](Cc1ccccc1)NC(=O)[C@@H]1CCCN1C(=O)[C@@H](N)Cc1ccc(O)cc1 [MORPHICEPTIN] (H-YPFP-NH2) | 6.87 | < 5.00 | – | – | – | – | –
NC(=O)[C@H](CCc1ccccc1)NC(=O)[C@H](Cc1ccccc1)NC(=O)[C@@H]1CCCN1C(=O)[C@@H](N)Cc1ccc(O)cc1 | 7.13 | < 5.00 | – | – | – | – | –
